{"source": "patent US4792547A", "about": "“Pyrazine-2-carboxamide derivatives useful in treating allergic disease” (priority 1985, dated 1988)", "note": "Counter-ions that a name gives are not always drawn.", "data": [{"system": "mast cells", "assay": "Inhibitory effect on histamine release from sensitized rat peritoneal mast cells (DNP-As antigen challenge)", "assay_type": "cell-based, Wistar rats", "conditions": "Mast cell; rat peritoneal cells passively sensitized with anti-DNP-As rat serum; compound 1 min before DNP-As; 37° C.", "method": "The inhibitory effect of histamine release was examined with the under method, while using disodium cromoglycate(II), tranilast (III), and TA-5707F(IV)as reference drugs. Mixed peritoneal cells obtained from male Wistar rats weighing 350-400 g were sensitized by incubating for 2 hr at 37° C. with anti-DNP-As rat serum (produced according to the method of Tada and Okumura [Tada, T. and Okmura, K.: J. Immunology, 106,1002 (1971)]. The cell suspension containing about 1×10^5 mast cells/ml was prepared in Hepes Tyrode buffer containing heparin (10 unit/ml ) and BSA (0.3%). This suspension was divided into 0.8 ml aliquots in separate polyethylene tubes. […] After incubation at 37° C. for 1 min, 0.1 ml of DNP-As solution (50μg/ml) were added, followed by incubation at 37° C. for 2 min. The reactio was terminated by adding 2 ml of the cold buffer. The supernatants were separated by centrifugation, the cell pellets were resuspended in 3 ml buffer and placed for 3 min in the heating block (100° C.) to release the residual histamine into cells. The histamine was quantitated using the spedrofluorometric technique of modified Shore's method. The IC 50 was obtained from the dose-response curve.", "units": {"IC50": "nM"}, "values": [{"smiles": "COc1ccc(/C=C/C(=O)Nc2ccccc2C(=O)O)cc1OC", "note": "[tranilast (III), tranilast, reference compound]", "IC50": 24000}, {"smiles": "O=C(Nc1nnn[nH]1)c1cncc(N2CCCCC2)n1", "note": "[Example 9, 6-(1-Piperidinyl)-N-(1H-5-tetrazolyl)pyrazine-2-carboxamide]", "IC50": 5.6}, {"smiles": "CN1CCN(c2cncc(C(=O)Nc3nnn[nH]3)n2)CC1", "note": "[Example 15, 6-(4-Methyl-1-piperazinyl)-N-(1H-5-tetrazolyl)pyrazine-2-carboxamide hydrochloride hydrate]", "IC50": 36}, {"smiles": "CCN(CC)c1cncc(C(=O)Nc2nnn[nH]2)n1", "note": "[Example 7, 6-(Diethylamino)-N-(1H-5-tetrazolyl)pyrazine-2-carboxamide]", "IC50": 15}, {"smiles": "CNc1cncc(C(=O)Nc2nnn[nH]2)n1", "note": "[Example 2, 6-(Methylamino)-N-(1H-5-tetrazolyl)pyrazine-2-carboxamide]", "IC50": 2.5}, {"smiles": "CC(C)Nc1cncc(C(=O)Nc2nnn[nH]2)n1", "note": "[Example 5, 6-(Isopropylamino)-N-(1H-5-tetrazolyl)pyrazine-2-carboxamide]", "IC50": 5}, {"smiles": "O=C(Nc1nnn[nH]1)c1cncc(Nc2ccccc2)n1", "note": "[Example 16, 6-(Phenylamino)-N-(1H-5-tetrazolyl)pyrazine-2-carboxamide]", "IC50": 0.062}, {"smiles": "Cc1cccc(C(=O)Nc2nnn[nH]2)n1", "note": "[TA-5707F (IV), 6-methyl-N-(1H-5-tetrazolyl) pyridine-2-carboxamide, reference compound]", "IC50": 46}, {"smiles": "O=C(Nc1nnn[nH]1)c1cncc(N2CCOCC2)n1", "note": "[Example 14, 6-(4-Morpholinyl)-N-(1H-5-tetrazolyl)pyrazine-2-carboxamide]", "IC50": 36}, {"smiles": "O=C(O)c1cc(=O)c2c(OCC(O)COc3cccc4oc(C(=O)O)cc(=O)c34)cccc2o1", "note": "[disodium cromoglycate (II), disodium cromoglycate, reference compound]", "IC50": 190}, {"smiles": "O=C(Nc1nnn[nH]1)c1cncc(N2CCCC2)n1", "note": "[Example 8 (free), 6-(1-Pyrrolidinyl)-N-(1H-5-tetrazolyl)pyrazine-2-carboxamide]", "IC50": 1.2}, {"smiles": "CCCNc1cncc(C(=O)Nc2nnn[nH]2)n1", "note": "[Example 4, 6-(n-Propylamino)-N-(1H-5-tetrazolyl)pyrazine-2-carboxamide]", "IC50": 17}, {"smiles": "CN(C)c1cncc(C(=O)Nc2nnn[nH]2)n1", "note": "[Example 6, 6-(Dimethylamino)-N-(1H-5-tetrazolyl)pyrazine-2-carboxamide]", "IC50": 0.47}, {"smiles": "CCNc1cncc(C(=O)Nc2nnn[nH]2)n1", "note": "[Example 3, 6-(Ethylamino)-N-(1H-5-tetrazolyl)pyrazine-2-carboxamide]", "IC50": 2}]}, {"system": "not listed separately", "assay": "Acute toxicity test (oral)", "conditions": "mouse, in vivo, po", "method": "(§1) Male ICR mice 5 weeks old were used as 5 animals at a group. The compounds were administered orally at each dosage.", "units": {"LD50": "mg/kg"}, "values": [{"smiles": "O=C(Nc1nnn[nH]1)c1cncc(N2CCCC2)n1.[Na]", "LD50": "> 2000"}]}, {"system": "not listed separately", "assay": "Acute toxicity test (oral)", "conditions": "mouse, in vivo; male ICR mice 5 weeks old, oral", "method": "as §1", "units": {"LD50": "mg/kg"}, "values": [{"smiles": "O=C(Nc1nnn[nH]1)c1cncc(N2CCCC2)n1", "note": "[Example 8 (free), 6-(1-Pyrrolidinyl)-N-(1H-5-tetrazolyl)pyrazine-2-carboxamide]", "LD50": "> 2000"}]}, {"system": "not given", "assay": "not given", "conditions": "daily dosage about 300 mg, oral; cited from earlier work", "values": [{"smiles": "COc1ccc(/C=C/C(=O)Nc2ccccc2C(=O)O)cc1OC", "note": "[tranilast (III), tranilast, reference compound]", "side effects in the digestive system": "nausea, abdominal pain, and gastric discomfort"}]}, {"system": "not given", "assay": "not given", "conditions": "human, in vivo; cited from earlier work", "values": [{"smiles": "O=C(O)c1cc(=O)c2c(OCC(O)COc3cccc4oc(C(=O)O)cc(=O)c34)cccc2o1", "note": "[disodium cromoglycate (II), disodium cromoglycate, reference compound]", "physical discomfort in the throat": "feeling of physical discomfort in the throat"}]}]}
